Test system: C3H10T1/2 cell strain
Test: Induction of alkali phosphatase activity in C3H10T1/2 cell strain
Type: cell-based, mouse
Conditions: 200 μg peptide solidified per well by air drying; three days of incubation; blank wells 0.24±0.11
Experimental: Undifferentiated mouse mesenchymal cell strain C3H10T1/2 (purchased from Dai-Nippon Seiyaku KK, Japan) was dispersed in Eagle's MEM medium containing 10% of fetal bovine serum in a cell concentration of 3.75×10^4 cells/mL, and thus a cell culture liquid was prepared.
Three days after the start of incubation, a culture supernatant was removed, and the wells were washed once with phosphate buffer (PBS: 10 mM, containing 0.15 M of common salt, pH 7.4). To each well of the 96-hole plates, 100 μL of Tris buffer (20 mM, pH 8.5) containing 1% Triton X-100 was added and allowed to stand for 30 minutes to dissolve cells. With respect to 100 μL of the resulting cell solution, 100 μL of Tris buffer (1.5 M, containing 1 mM of ZnCl2 and 1 mM of MgCl2, pH 8.5) containing 7.5 mM of p-nitrophenyl phosphate (purchased from Wako Junyaku Kogyo, Japan) were added. Increase in absorbency at 405 nm was measured to determine the alkaline phosphatase activity in the cell solution. The concentration of protein in the cell solution was also determined using a BCA assay kit (produced by Pierce).

Substance	alkaline phosphatase activity [nmol/min·mg-protein]
Example 4: Peptide having amino acid sequence SEQ ID NO:6 with an amino group at the N terminal and an amide group at the C terminal (H-KIPKASSVPTELSAISTLYL-NH2)	1.7±0.1
Example 1: Peptide having amino acid sequence SEQ ID NO:4 with an amino group at the N terminal and a carboxyl group at the C terminal (NSVNSKIPKACSVPTELSAISTLYL)	1.3±0.9
Example 3: Peptide having amino acid sequence SEQ ID NO:5 with an amino group at the N terminal and an amide group at the C terminal (H-NSVNSKIPKASSVPTELSAISTLYL-NH2)	1.5±0.8
Example 2: Peptide having amino acid sequence SEQ ID NO:4 with an amino group at the N terminal and an amide group at the C terminal (H-NSVNSKIPKACSVPTELSAISTLYL-NH2)	1.5±0.6
